In PubChem BioAssay (NCI):
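These data come from cells grown in 96-well plates and exposed to compound for 48 hours at five concentrations. TGI marks complete inhibition of growth.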

Experiments:
Assay in all cases: NCI tumour cell line growth inhibition, 48 h
[1] = test system: SK-MEL-28 melanoma
[2] = test system: CCRF-CEM leukemia
[3] = test system: MOLT-4 leukemia
[4] = test system: SW-620 colon
[5] = test system: OVCAR-3 ovarian
[6] = test system: COLO 205 colon
[7] = test system: HOP-62 NSCLC
[8] = test system: MCF7 breast
[9] = test system: UO-31 renal
[10] = test system: MALME-3M melanoma
[11] = test system: KM12 colon
[12] = test system: HS 578T breast
[13] = test system: SF-268 CNS
[14] = test system: 786-0 renal
[15] = test system: NCI-H23 lung
[16] = test system: EKVX NSCLC
[17] = test system: TK-10 renal
[18] = test system: CAKI-1 renal
[19] = test system: SK-MEL-2 melanoma
[20] = test system: K-562 leukemia
[21] = test system: HCC-2998 colon
[22] = test system: A549 NSCLC
[23] = test system: HT29 colon
[24] = test system: RXF 393 renal
[25] = test system: HCT-15 colon
[26] = test system: SK-OV-3 ovarian
[27] = test system: M14 melanoma
[28] = test system: HCT-116 colon
[29] = test system: PC-3 prostate
[30] = test system: IGROV1 ovarian
[31] = test system: NCI-H460 lung
[32] = test system: UACC-62 melanoma
[33] = test system: BT-549 breast
[34] = test system: MDA-MB-231 breast
[35] = test system: NCI-H226 lung
[36] = test system: SF-295 CNS
[37] = test system: NCI-H522 lung
[38] = test system: U251 CNS
[39] = test system: OVCAR-4 ovarian
[40] = test system: ACHN renal
[41] = test system: SF-539 CNS
[42] = test system: OVCAR-5 ovarian
[43] = test system: HOP-92 NSCLC
[44] = test system: MDA-MB-435
[45] = test system: HL-60(TB) leukemia
[46] = test system: SNB-75 CNS
[47] = test system: SR leukemia
[48] = test system: UACC-257 melanoma
[49] = test system: SNB-19 CNS
[50] = test system: RPMI-8226 leukemia
[51] = test system: NCI/ADR-RES ovarian
[52] = test system: SK-MEL-5 melanoma
[53] = test system: OVCAR-8 ovarian

Measured: TGI

O=S(=O)(O)c1cc(N=Nc2c(O)ccc3ccccc23)c2c(S(=O)(=O)O)cccc2c1
> 100 µM: all assays above
